Laboratory results published in patent publication US9932325B2 (Denali Therapeutics Inc., priority 2015, dated 2018).
Where “and” joins values, the source holds several entries; their conditions need not be identical. Equal values may be shown once.

How the values were obtained:
[1] = Metabolic stability in human liver microsomes; format: in vitro ADME; conditions: 1 μM compound, 0.5 mg/mL protein, projected hepatic clearance, well-stirred model
Protocol: Metabolic stability of compounds was evaluated in human liver microsomes (from Corning or XenoTech, LLC) using a 96-well plate assay format. Compounds were incubated at 37° C. at 1 μM final concentration in the microsomal matrix (0.5 mg/mL total protein) in the presence or absence of NADPH cofactor. An NADPH regenerating system, comprised of NADP, MgCl2, isocitric acid, and isocitrate dehydrogenase, was used in the assay. Enzymatic reactions were conducted for 0, 5, 10, 20, 30, or 60 min before termination by addition of acetonitrile containing tolbutamide and labetalol internal standards (100 ng/mL). After shaking for 10 min, plates were subjected to centrifugation (4000 rpm at 4° C.) for 20 min and supernatants were mixed 1:3 with HPLC grade water. Samples were analyzed by LC-MS/MS using appropriate MRM transitions for each analyte and internal standard (IS). Analyte/IS peak area ratios were used to determine percent compound remaining at each time point. Intrinsic clearance (Clint; expressed as mL·min^−1·mg^−1) was calculated from the first order elimination constant (k, min^−1) of test article decay and the volume of the incubation. These values were scaled to intrinsic organ clearance (Clint) using human specific scaling factors (48.8 mg microsomal protein per g liver; 25.7 g liver per kg body weight). Organ Clint was subsequently converted to hepatic clearance (CLhep, mL·min-1·kg-1) using the well-stirred model of hepatic elimination, where Qh is human hepatic blood flow (20.7 mL·min-1·kg-1).
CLhep is the projected human clearance in the liver based on the above in vitro assay. A lower value is indicative of less compound being removed by the liver.

[2] = biological target: LRRK2 G2019S enzyme (Homo sapiens (Human), UniProt Q5S007, G2019S); test: LRRK2 G2019S TR-FRET biochemical assay (LRRKtide substrate); conditions: 134 μM ATP
Procedure, shortened: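 Kinase and LRRKtide substrate were preincubated with compound 20 minutes at 23° C, then ATP was added and the reaction ran 60 minutes at 23° C. Detection used 2 nM antibody with 10 mM EDTA in TR-FRET dilution buffer, 60 minutes at 23° C, read by TR-FRET.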

[3] = biological target: MDR1 (P-glycoprotein) (Homo sapiens (Human), UniProt P08183); test: MDR1-MDCK permeability, bidirectional assay; format: in vitro ADME; conditions: dog, MDR1-MDCK cells, monolayer efflux ratio, pH 7.4, read-out: MDR1 ER
Protocol: The blood brain barrier (BBB) separates circulating blood from the extracellular fluid of the central nervous system (CNS). The passive membrane permeability (Papp) and MDR1 (P-glycoprotein) substrate efflux potential were determined using the MDR1-MDCK cell line as an in vitro model of the effective permeability of a compound through the BBB. A bidirectional assay was conducted in pre-plated MDR1-MDCK cells using a 12 or 96-well plate in the absence or presence of MDR1 inhibitor (GF120918 or Valspodar). Assays were run in duplicate in transport buffer (HBSS, pH 7.4) for 90 or 120 min (minutes) at 37° C., using a test article concentration of 1 μM. Monolayer integrity was confirmed using Lucifer yellow, and appropriate positive controls for passive permeability and MDR1 transport were included in each experiment. Following incubation, samples from donor and receiver compartments were removed and quenched with acetonitrile containing an appropriate internal standard (IS). Protein was precipitated by centrifugation for 10 min at 3220 g, and supernatants were diluted in ultra-pure water (if necessary) prior to analysis by LC-MS/MS using appropriate MRM transitions for analytes and IS. Papp (apparent permeability expressed in cm/sec [centimeter/second]) values were calculated according to the following equation:
[formula] where VR is the solution volume in the receiver chamber (apical or basolateral side), Area is the surface area for the insert membrane), Time is incubation time expressed in seconds, CR is the peak area ratio (analyte/IS) in the receiver chamber, CA is the average of the initial and final concentrations in the donor chamber, and Co is the initial peak area ratio in the donor chamber. Papp was determined in both the apical to basolateral (A→B) and basolateral to apical (B→A) directions.
Monolayer efflux ratios (ER) were derived using the following equation: […]

Chain of MDR1 (P-glycoprotein) (P08183 whole entry): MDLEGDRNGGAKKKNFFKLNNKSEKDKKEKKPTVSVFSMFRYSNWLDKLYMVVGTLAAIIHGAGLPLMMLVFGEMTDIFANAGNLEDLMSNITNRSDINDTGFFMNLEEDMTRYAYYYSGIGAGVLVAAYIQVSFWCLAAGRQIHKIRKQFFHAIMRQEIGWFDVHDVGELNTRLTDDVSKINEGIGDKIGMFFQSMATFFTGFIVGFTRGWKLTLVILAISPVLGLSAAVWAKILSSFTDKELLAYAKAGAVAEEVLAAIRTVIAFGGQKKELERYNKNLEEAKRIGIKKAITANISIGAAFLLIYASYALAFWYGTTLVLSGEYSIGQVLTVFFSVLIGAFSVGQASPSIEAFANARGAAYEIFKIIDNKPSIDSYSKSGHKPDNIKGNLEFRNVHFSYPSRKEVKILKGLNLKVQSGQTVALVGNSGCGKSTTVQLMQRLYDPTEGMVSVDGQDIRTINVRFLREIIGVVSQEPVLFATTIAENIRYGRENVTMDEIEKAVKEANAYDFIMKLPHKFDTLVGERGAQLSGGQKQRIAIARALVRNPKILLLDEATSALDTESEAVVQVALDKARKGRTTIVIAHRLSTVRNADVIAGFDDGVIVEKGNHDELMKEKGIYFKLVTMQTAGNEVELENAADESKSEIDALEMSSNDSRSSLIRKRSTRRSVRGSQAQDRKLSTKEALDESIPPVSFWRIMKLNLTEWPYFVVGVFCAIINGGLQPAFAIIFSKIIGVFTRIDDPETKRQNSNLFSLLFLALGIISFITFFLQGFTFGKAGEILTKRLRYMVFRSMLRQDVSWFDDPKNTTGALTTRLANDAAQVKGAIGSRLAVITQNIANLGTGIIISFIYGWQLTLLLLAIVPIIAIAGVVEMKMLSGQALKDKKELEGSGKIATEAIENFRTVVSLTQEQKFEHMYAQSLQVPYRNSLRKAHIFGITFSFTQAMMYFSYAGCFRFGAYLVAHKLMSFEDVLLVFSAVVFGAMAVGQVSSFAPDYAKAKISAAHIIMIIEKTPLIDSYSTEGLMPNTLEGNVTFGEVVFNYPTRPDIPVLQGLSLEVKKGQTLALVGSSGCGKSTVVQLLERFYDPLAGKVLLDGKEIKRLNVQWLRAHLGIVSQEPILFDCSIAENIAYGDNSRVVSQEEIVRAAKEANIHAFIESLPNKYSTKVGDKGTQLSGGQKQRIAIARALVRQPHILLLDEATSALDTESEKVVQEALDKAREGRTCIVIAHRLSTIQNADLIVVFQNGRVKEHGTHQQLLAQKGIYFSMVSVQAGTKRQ
Chain of LRRK2 G2019S enzyme (Q5S007 whole entry G2019S): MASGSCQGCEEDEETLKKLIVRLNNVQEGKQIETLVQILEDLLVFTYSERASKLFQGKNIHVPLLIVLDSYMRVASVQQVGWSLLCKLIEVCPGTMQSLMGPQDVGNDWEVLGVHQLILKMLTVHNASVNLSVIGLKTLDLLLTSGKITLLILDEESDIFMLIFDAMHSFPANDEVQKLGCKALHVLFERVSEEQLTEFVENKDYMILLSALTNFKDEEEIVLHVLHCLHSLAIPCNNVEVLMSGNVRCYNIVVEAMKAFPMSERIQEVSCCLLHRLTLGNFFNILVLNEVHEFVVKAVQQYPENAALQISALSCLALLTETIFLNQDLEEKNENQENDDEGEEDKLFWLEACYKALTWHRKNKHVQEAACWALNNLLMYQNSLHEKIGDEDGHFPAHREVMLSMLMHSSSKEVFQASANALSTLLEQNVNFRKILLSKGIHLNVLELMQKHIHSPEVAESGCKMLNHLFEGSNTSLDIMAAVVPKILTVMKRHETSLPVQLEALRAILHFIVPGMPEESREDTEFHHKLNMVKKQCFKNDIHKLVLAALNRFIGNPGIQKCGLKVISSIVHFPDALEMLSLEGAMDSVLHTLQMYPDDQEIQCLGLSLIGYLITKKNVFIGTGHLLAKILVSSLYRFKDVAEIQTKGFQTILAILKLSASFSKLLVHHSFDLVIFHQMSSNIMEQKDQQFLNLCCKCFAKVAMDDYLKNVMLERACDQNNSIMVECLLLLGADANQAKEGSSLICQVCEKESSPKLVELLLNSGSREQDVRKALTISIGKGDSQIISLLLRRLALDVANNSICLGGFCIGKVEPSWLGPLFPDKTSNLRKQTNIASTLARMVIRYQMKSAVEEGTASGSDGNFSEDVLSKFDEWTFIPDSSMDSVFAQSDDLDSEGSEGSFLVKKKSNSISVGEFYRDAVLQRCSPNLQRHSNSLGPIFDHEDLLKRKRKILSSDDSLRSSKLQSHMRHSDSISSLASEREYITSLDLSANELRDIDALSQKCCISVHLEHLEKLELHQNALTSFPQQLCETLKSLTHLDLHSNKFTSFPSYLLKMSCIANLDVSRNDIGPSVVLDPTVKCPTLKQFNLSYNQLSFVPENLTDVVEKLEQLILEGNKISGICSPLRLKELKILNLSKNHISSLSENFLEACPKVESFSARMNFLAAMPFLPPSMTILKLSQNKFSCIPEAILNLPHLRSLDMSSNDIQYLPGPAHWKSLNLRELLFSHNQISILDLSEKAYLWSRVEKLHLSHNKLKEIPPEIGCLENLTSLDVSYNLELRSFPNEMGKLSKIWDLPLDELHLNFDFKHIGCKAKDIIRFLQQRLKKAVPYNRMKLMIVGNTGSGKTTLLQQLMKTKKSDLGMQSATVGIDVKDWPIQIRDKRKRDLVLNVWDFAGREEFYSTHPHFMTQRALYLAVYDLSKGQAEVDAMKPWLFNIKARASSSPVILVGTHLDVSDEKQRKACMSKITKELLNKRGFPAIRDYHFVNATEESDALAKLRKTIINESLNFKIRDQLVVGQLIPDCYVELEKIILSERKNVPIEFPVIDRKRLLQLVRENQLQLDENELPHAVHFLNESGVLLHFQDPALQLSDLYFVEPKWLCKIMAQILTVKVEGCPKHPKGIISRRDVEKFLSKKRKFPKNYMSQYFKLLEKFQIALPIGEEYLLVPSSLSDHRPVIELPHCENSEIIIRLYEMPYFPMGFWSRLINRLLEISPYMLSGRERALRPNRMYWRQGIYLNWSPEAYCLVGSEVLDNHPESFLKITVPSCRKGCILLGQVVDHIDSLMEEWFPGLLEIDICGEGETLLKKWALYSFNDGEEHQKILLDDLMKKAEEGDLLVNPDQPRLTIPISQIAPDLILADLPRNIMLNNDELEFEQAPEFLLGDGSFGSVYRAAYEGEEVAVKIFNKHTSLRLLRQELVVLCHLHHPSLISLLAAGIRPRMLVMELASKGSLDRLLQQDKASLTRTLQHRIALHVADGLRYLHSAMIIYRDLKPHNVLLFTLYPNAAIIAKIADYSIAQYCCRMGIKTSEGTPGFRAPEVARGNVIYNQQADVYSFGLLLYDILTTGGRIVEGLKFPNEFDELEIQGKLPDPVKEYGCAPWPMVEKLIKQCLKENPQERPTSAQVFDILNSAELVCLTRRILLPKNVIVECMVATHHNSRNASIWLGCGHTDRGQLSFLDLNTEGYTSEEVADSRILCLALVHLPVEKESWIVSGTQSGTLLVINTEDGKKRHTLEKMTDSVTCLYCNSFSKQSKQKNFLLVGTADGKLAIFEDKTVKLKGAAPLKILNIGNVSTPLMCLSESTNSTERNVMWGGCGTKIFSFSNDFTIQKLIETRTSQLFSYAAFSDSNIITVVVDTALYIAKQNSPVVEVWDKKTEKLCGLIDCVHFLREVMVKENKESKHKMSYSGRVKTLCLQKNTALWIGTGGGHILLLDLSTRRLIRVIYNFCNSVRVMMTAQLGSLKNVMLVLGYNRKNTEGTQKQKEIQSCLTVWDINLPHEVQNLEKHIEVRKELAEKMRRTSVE

Structure (SMILES)	Human liver microsomes CLhep [1] [mL/min/kg]	IC50 [2]	efflux ratio at 1 μM [3]
CCNc1nc(Nc2cn(C3(C)CCOC3=O)nc2C2CC2)ncc1C(F)(F)F (single isomer, unassigned) [Compound 104]	11.59	< 30 nM and 0.96 nM	
CCNc1nc(Nc2cn(C3(C)CCOC3=O)nc2C2CC2)ncc1Br (single isomer, unassigned) [Compound 114]	16.508	< 30 nM and 1.05 nM	
CNc1nc(Nc2cn(C3(C)CCOC3=O)nc2C2CC2)ncc1C(F)(F)F (single isomer, unassigned) [Compound 122]	9.856	< 30 nM and 0.72 nM	
CCNc1nc(Nc2cc(C3(C)CCOC3=O)nn2C2CC2)ncc1C(F)(F)F (single isomer, unassigned) [Compound 143]	7.81	< 30 nM and 1.21 nM	
CCNc1nc(Nc2cc(C3(C)CCOC3=O)nn2C2CC2)ncc1Br (single isomer, unassigned) [Compound 150]	11.077	< 30 nM and 1.22 nM	
CNc1nc(Nc2cc(C3(C)CCOC3=O)nn2C2CC2)ncc1C(F)(F)F (single isomer, unassigned) [Compound 155]	5.519	< 30 nM and 1.95 nM	
CCNc1nc(Nc2cc(C3(C)CCn4ncnc43)nn2C2CC2)ncc1C(F)(F)F (single isomer, unassigned) [Compound 172]	19.9	< 30 nM and 1.47 nM	42
CCNc1nc(Nc2cnn(C3CC(C#N)C3)c2C)ncc1C(F)(F)F (stereo not drawn) [Compound 27]	7.81		0.88
[2H]C([2H])([2H])n1nc(C(C)(C)n2nccn2)cc1Nc1ncc(C(F)(F)F)c(NCC)n1 [Compound 34, N4-Ethyl-N2-[1-(^2H3)methyl-3-[2-(2H-1,2,3-triazol-2-yl)propan-2-yl]-1H-pyrazol-5-yl]-5-(trifluoromethyl)pyrimidine-2,4-diamine]	0.75	< 30 nM and 2.31 nM	4.8
[2H]C([2H])([2H])n1nc(C(C)(C)n2nccn2)cc1Nc1ncc(C(F)(F)F)c(NC2CC2)n1 [Compound 68]	3.18	< 30 nM and 2.23 nM	4.01
CCNc1nc(Nc2cc(C(C)(C)n3nccn3)nn2C2CC2)ncc1C(F)(F)F [Compound 78, N2-[2-cyclopropyl-5-[1-methyl-1-(triazol-2-yl)ethyl]pyrazol-3-yl]-N4-ethyl-5-(trifluoromethyl)pyrimidine-2,4-diamine]	4.81	< 30 nM and 3.69 nM	2
CCNc1nc(Nc2cn(C(C)(C)C#N)nc2C2CC2)ncc1Br [Compound 93]	17.663	< 30 nM and 1.87 nM	
CCNc1nc(Nc2cn(C(C)(C)C#N)nc2C2CC2)ncc1C(F)(F)F [Compound 118]	7.81	< 30 nM and 1.55 nM	0.83
CCNc1nc(Nc2cc(C(C)(C)C#N)nn2C2CC2)ncc1C(F)(F)F [Compound 131]	2.237	< 30 nM and 4.98 nM	
CCNc1nc(Nc2cc(C(C)(C)C#N)nn2C2CC2)ncc1Br [Compound 141]	13.508	< 30 nM and 3.94 nM	
CCNc1nc(Nc2ccnn2[C@H]2C[C@H](O)C2)ncc1C(F)(F)F [Compound 180]		30 to 60 nM	
CCNc1nc(Nc2ccnn2[C@H]2C[C@H](C#N)C2)ncc1C(F)(F)F [Compound 181, (1R,3R)-3-(5-((4-(ethylamino)-5-(trifluoromethyl)pyrimidin-2-yl)amino)-1H-pyrazol-1-yl)cyclobutanecarbonitrile]		< 30 nM	
CCNc1nc(Nc2ccnn2[C@H]2C[C@H](n3nccn3)C2)ncc1C(F)(F)F [Compound 182, N2-(1-((1R,3R)-3-(2H-1,2,3-triazol-2-yl)cyclobutyl)-1H-pyrazol-5-yl)-N4-ethyl-5-(trifluoromethyl)pyrimidine-2,4-diamine]		< 30 nM	

Structure (SMILES)	Human liver microsomes CLhep [1] [mL/min/kg]	IC50 [2]	efflux ratio at 1 μM [3]
CCNc1nc(Nc2ccnn2[C@H]2C[C@H](n3ccnn3)C2)ncc1C(F)(F)F [Compound 183, N2-(1-((1R,3R)-3-(1H-1,2,3-triazol-1-yl)cyclobutyl)-1H-pyrazol-5-yl)-N4-ethyl-5-(trifluoromethyl)pyrimidine-2,4-diamine]		< 30 nM	
[2H]C([2H])([2H])n1nc([C@@]23C[C@@H]2COC3=O)cc1Nc1ncc(C(F)(F)F)c(NCC)n1 [Compound 184]		< 30 nM	
[2H]C([2H])([2H])n1nc([C@]23C[C@H]2COC3=O)cc1Nc1ncc(C(F)(F)F)c(NCC)n1 [Compound 185]		< 30 nM	
[2H]C([2H])([2H])n1nc(C2(C)CCCO2)cc1Nc1ncc(C(F)(F)F)c(NCC)n1 (stereo not drawn) [Compound 186]		< 30 nM	
CCNc1nc(Nc2ccnn2[C@H]2C[C@@H](n3nccn3)C2)ncc1C(F)(F)F [Compound 188]		30 to 60 nM	
CCNc1nc(Nc2ccnn2[C@H]2C[C@@H](n3ccnn3)C2)ncc1C(F)(F)F [Compound 189]		30 to 60 nM	
CCNc1nc(Nc2ccnn2[C@H]2C[C@H](F)C2)ncc1C(F)(F)F [Compound 190]		< 30 nM	
CCNc1nc(Nc2cc(C(C)(C)O)nn2C2CCC2)ncc1C(F)(F)F [Compound 191]		< 30 nM	
CCNc1nc(Nc2cc(C(C)(C)OC)nn2C2CCC2)ncc1C(F)(F)F [Compound 192]		< 30 nM	
[2H]C([2H])([2H])n1nc(C2CCOCC2)cc1Nc1ncc(C(F)(F)F)c(NCC)n1 [Compound 193]		30 to 60 nM	
CCNc1nc(Nc2cn(C3(C)CCCC3=O)nc2C)ncc1C(F)(F)F (stereo not drawn) [Compound 194, 2-[4-[[4-(ethylamino)-5-(trifluoromethyl)pyrimidin-2-yl]amino]-3-methyl-pyrazol-1-yl]-2-methyl-cyclopentanone]		< 30 nM	
CNc1nc(Nc2cn(C3(C)CCCC3=O)nc2C)ncc1C(F)(F)F (stereo not drawn) [Compound 195]		< 30 nM	
CCNc1nc(Nc2cn(C3CC3)nc2[C@H]2C[C@H](n3nccn3)C2)ncc1C(F)(F)F [Compound 196]		< 30 nM	
CCNc1nc(Nc2cn(C3CC3)nc2[C@H]2C[C@@H](n3nccn3)C2)ncc1C(F)(F)F [Compound 197]		< 30 nM	
CNc1nc(Nc2cn(C3CC3)nc2[C@H]2C[C@H](n3nccn3)C2)ncc1C(F)(F)F [Compound 198]		< 30 nM	
CNc1nc(Nc2cn(C3CC3)nc2[C@H]2C[C@@H](n3nccn3)C2)ncc1C(F)(F)F [Compound 199]		30 to 60 nM	
CNc1nc(Nc2cn(C(C)(C)c3ncn(C)n3)nc2C)ncc1C(F)(F)F [Compound 218]	0	< 30 nM and 5.91 nM	86
